In brackets after ≈: the same amount, converted by molar mass.

Our source for the adverse effects and MIC values is patent US5426104A, “Tricyclic carbapenem compounds, methods of preparation and methods of use” (Glaxo SpA, priority 1991, dated 1995).

A short description of series [1]: intravenous administration to the mouse, adverse effects. To be noted: 500 mg/kg intravenously. In kind it is in vivo. The text has this: (§1) The compounds of the invention are essentially non-toxic at therapeutically useful doses.
In the next series the test system is P aeruginosa 1911E. Briefly: standard microtiter broth serial dilution test, P aeruginosa 1911E. The following applies: 18 h.
Series [2] is described as follows: intravenous administration to the rat, adverse effects. To be noted: 500 mg/kg intravenously. In kind it is in vivo.
From the text: as §1

In another series the test system is S faecalis 850E. The experiment in a line: standard microtiter broth serial dilution test, S faecalis 850E. To be noted: 18 h.
A further series concerns E cloacae 3647. Briefly: standard microtiter broth serial dilution test, E cloacae 3647. The following applies: 18 h.
Another series relates to E coli 1852E. To be noted: 18 h.
The test system of a further series is S aureus 663E. The experiment in a line: standard microtiter broth serial dilution test, S aureus 663E. To be noted: 18 h.
The subject of the next series is B fragilis 2017E. The experiment in a line: standard microtiter broth serial dilution test, B fragilis 2017E. To be noted: 18 h.

Description for B fragilis 2017E: (§2) For example the antibacterial activity of the compounds of the invention was determined using a standard microtiter broth serial dilution test. In this test the broth was incubated with approximately 10^5 colony forming units of the test organism and incubated at 35° for 18 hours in the presence of test compound.
Description for E cloacae 3647: as §2
Description for E coli 1852E: as §2
Description for P aeruginosa 1911E: as §2
Description for S aureus 663E: as §2
Description for S faecalis 850E: as §2

Take `C[C@@H](O)[C@H]1C(=O)N2C(C(=O)O)=C3[C@H](CCC[C@@H]3N(C)C=N)[C@H]12` [Example 1, (4S,8S,9R,10S,12R)-4-(N-methylformamidino)-10-(1-hydroxyethyl)-11-oxo-1-azatricyclo[7.2.0.0^3.^8]undec-2-ene-2-carboxylic acid]: the adverse effects result in series [1] and in series [2] was “no adverse effects were observed” in each case. The minimal inhibitory concentration (MIC) amounted to 8 µg/mL (≈ 26 µM) with P aeruginosa 1911E; 1 µg/mL (≈ 3.25 µM) against S faecalis 850E; 1 µg/mL (≈ 3.25 µM) in the series on E cloacae 3647; 0.5 µg/mL (≈ 1.63 µM) against E coli 1852E; 0.1 µg/mL (≈ 0.325 µM) against S aureus 663E; 0.2 µg/mL (≈ 0.651 µM) against B fragilis 2017E.

For the compound `CN=CN[C@H]1CCC[C@H]2C1=C(C(=O)O)N1C(=O)[C@H]([C@@H](C)O)[C@@H]21` [Example 2, (4 S,8S,9R,10S,12R)-4-[(3'-methyl)formamidino)-10-(1-hydroxyethyl)-11-oxo-1-azatricyclo[7.2.0.0^3.^8]undec-2-ene-2-carboxylic acid], the MIC against P aeruginosa 1911E stood at 16 µg/mL (≈ 52.1 µM); against S faecalis 850E, 16 µg/mL (≈ 52.1 µM); against E cloacae 3647, 4 µg/mL (≈ 13 µM); with E coli 1852E it was 2 µg/mL (≈ 6.51 µM); in the series on S aureus 663E it was 0.1 µg/mL (≈ 0.325 µM); with B fragilis 2017E it was 0.5 µg/mL (≈ 1.63 µM).

The MIC is the least concentration at which growth counts as inhibited.
